Measured values reported in article PMC8856729 (Bioorganic & Medicinal Chemistry Letters, 2022).
Where two headings read alike, the source gives them in different places.

System: SARS-CoV-2 M^pro variants (all mutants and the WT)
Format: biochemical

For `CC(C)(C)[C@H](NC(=O)C(F)(F)F)C(=O)N1C[C@H]2[C@@H]([C@H]1C(=O)N[C@H](C#N)C[C@@H]1CCNC1=O)C2(C)C` [nirmatrelvir], the inhibition (0.005 µM) was “below 50%”, the inhibition (0.02 µM) was “over 50%” and the “inhibition of enzymatic activity” value (0.1 µM) was “fully inhibited”.
